Consider one molecule from publication PMC12388496, “Discovery of (E)-1,3-Diphenyl-2-Propen-1-One Derivatives as Potent and Orally Active NLRP3 Inflammasome Inhibitors for Colitis” (Molecules, 2025).

One data set has as its system NLRP3 inflammasome. The data set can be described thus: Western blot of NLRP3 inflammasome proteins in BMDMs. It is filed as cell-based, mouse. Particulars: BMDM, LPS and Nigericin. The procedure: To further investigate the potential molecular mechanisms of compound F14, an in vitro inflammation model was constructed using BMDM cells.
Inoculate BMDMs cells into a 6-well plate with 4-6 × 10^6 cells per well and culture overnight. Pre-treat with LPS (200 ng/mL) for 3 h, then treat with different concentrations of compound F14 for 30 min, and add Nigericin (10 µM) to activate BMDMs for 30 min. Add RIPA (Beyotime Biotechnology, Shanghai, China) for lysis. Select SDS-PAGE with different concentrations for electrophoresis, and then transfer to PVDF membrane (Millipore Immobilon-P, Burlington, MA, USA). Incubate the antibody imprint overnight at 4°C, and then incubate with HRP conjugated secondary antibody for 1 h.

For the next data set, the system named is BMDM cells. The experiment in a line: Flow cytometry apoptosis assay kit (pyroptosis) in BMDM cells under LPS/Nigericin. The format is cell-based, mouse. The following applies: vs LPS/Nigericin group, more pronounced at higher concentrations. An excerpt: Pyroptosis is a form of programmed cell death, typically triggered by the activation of inflammasomes within the cell. It is characterized by the rupture of the cell membrane, releasing cellular contents (such as Lactate Dehydrogenase, LDH), which enhances the inflammatory response. Unlike apoptosis, pyroptosis is initiated through the activation of inflammasomes, involving distinct molecular mechanisms, and is often accompanied by cell swelling and rupture. In contrast, apoptosis is triggered by the activation of Caspase-3, leading to systemic degradation within the cell while maintaining the integrity of the cell membrane. The cell undergoes controlled self-degradation without provoking an immune response. […]
Figure 4 F14 inhibits NLRP3 inflammasome activation, leading to cell pyroptosis. […] All values given are best readings. / LPS/Nigericin: Q1-UL 0.83%, Q1-UR 79.53%, Q1-LL 14.81%, Q1-LR 4.83% uncertain / F14 10 μM: Q1-UL 0.52%, Q1-UR 48.44%, Q1-LL 45.87%, Q1-LR 5.17% uncertain / F14 5 μM: Q1-UL 1.05%, Q1-UR 58.47%, Q1-LL 36.16%, Q1-LR 4.32% uncertain / F14 2.5 μM: Q1-UL 0.97%, Q1-UR 69.26%, Q1-LL 24.69%, Q1-LR 5.08% uncertain / The Control plot in panel A (Q1-UL 0.83%, Q1-UR 24.77%, Q1-LL 69.90%, Q1-LR 4.49%) is left out because it is not a substance. / LPS/Nigericin is the stimulus rather than a test compound. […]

A short description of data set [1]: MTT assay, HepaRG cytotoxicity. The format is cell-based. The following applies: human, HepaRG cells, n = 3. As for the experimental part: HepaRG cells in the logarithmic growth phase (10^5 cells/mL), inoculate them into a 96-well plate, and culture overnight in a 37 °C, 5% CO2 incubator. Add compounds at different concentrations and continue culturing for 24 h. Add 20 μL of MTT solution, incubate for 4 h, discard the supernatant, and add DMSO to dissolve.
On the technique in general: Tetrazolium dyes change colour on reduction, which living cells bring about.

The subject of the next data set is ASC. The experiment in a line: ASC spot immunofluorescence experiment in BMDM cells. It is filed as cell-based, mouse. The following applies: LPS and Nigericin, concentration-dependent. The text has this:
The formation of ASC oligomers is a key hallmark of inflammasome activation. ASC forms interactions with other ASC molecules through its pyrin domain (PYD), which leads to the aggregation of these molecules, resulting in the formation of a speck-like structure (ASC specks). This process involves not only the aggregation of proteins but also the assembly of a highly ordered structure in the cytoplasm. Inhibition of ASC oligomerization can effectively block NLRP3 inflammasome activation. […] Therefore, we hypothesize that F14 may inhibit caspase-1 activation by interfering with ASC oligomerization or ASC speck formation. To validate this hypothesis, we conducted immunofluorescence experiments in BMDM cells under inflammatory conditions.
Add the BMDM cells into a 24-well plate with a cell density of 3 × 10^5 cells per well. Add LPS (200 ng/mL) to all wells except the blank wells to stimulate the cells for 3 h, then add the F14 to the experimental group and incubate for 1 h, followed by Nigericin stimulation for 30 min. Add 500 μL of FAA fixation solution to each well, incubate with 1% TritonX-100 solution for 15 min, then block with 5% BSA solution. Add an appropriate amount of primary antibody and incubate overnight, wash, then add the secondary antibody for incubation. […]

Each structure is given as a SMILES string. A value given as a limit tells only on which side of the number the result lay.

`Cc1ccc(C(=O)/C=C/c2cccc(O)c2)c(C)c1` [Compound F14, (E)-1-(2,4-dimethylphenyl)-3-(3-hydroxyphenyl)propyl-2-en-1-one]: in the data set on NLRP3 inflammasome, the “protein expression levels of pro-IL-1β, pro-caspase-1, ASC, NEK7 and NLRP3” value is listed as “no significant effect”; the “protein levels of IL-1β and caspase-1 in the cell supernatant” value is on record as “concentration-dependent inhibitory effect”. The “viable cell percentage and late apoptotic cell percentage” value in the data set with BMDM cells is listed as “significantly improved”. The IC50 (in general, the concentration that inhibits the measured activity by half) at 24 h in data set [1] is more than 50 µM. The ASC speckles entry in the data set on ASC is “significant reduction”.
